Experimental data reported in paper PMC11201061, “Mechanistic Study of Antimicrobial Effectiveness of Cyclic Amphipathic Peptide [R4W4] against Methicillin-Resistant Staphylococcus aureus Clinical Isolates” (Antibiotics, 2024).
Structures can show the parent of a compound that is named as a salt. Where two headings read alike, the source gives them in different places.

How the values were obtained:
MRSA LAC [1] = assay: microbe, parasite or virus in culture; format: cell-based, Staphylococcus aureus; conditions: Staphylococcus aureus, MRSA
Description: The effects of cations on the antimicrobial activity of [R4W4] were determined against MRSA using vancomycin as a control. The bacteria aliquots were treated with MHB media containing the final concentration of sodium chloride (NaCl) (150, 75, 37.5, and 18.75 mM), calcium chloride (CaCl2) (8, 4, 2, and 1 mM), and ferric chloride (FeCl3) (1, 4, and 8 µM) in 96 well microplates. The MIC of [R4W4] and vancomycin were determined to determine whether there were changes in the MIC values when treated with different salt concentrations.

MRSA USA300 = assay: microbe, parasite or virus in culture; conditions: Staphylococcus aureus
Description: The interaction of [R4W4], melittin, and vancomycin with LTA in the presence of MRSA was determined using a microbroth dilution assay. Two-fold serial dilution was used to achieve a 100 μL final concentration of the antibacterial agents in a 96 microplate well. A 360 μL S. aureus LTA (Sigma Aldrich stock 5 mg/mL) was added to 17.64 mL MHB containing MRSA (5 x 10^5 CFU/mL) to achieve the final concentration of S. aureus LTA 100 μg/mL. Then, 100 μL aliquots of MHB (MRSA (5 × 10^5 CFU/mL) and 100 μg/mL S. aureus LTA) were added to the 96 microtiter wells containing the antibacterial agents. The microplate was incubated overnight at 37 °C to obtain the MICs. Controls were bacteria grown in the presence of LTA alone and in MHB alone.

MRSA Mec 1 = assay: microbe, parasite or virus in culture; format: cell-based, Staphylococcus aureus
Description: (§1) To determine whether the antibacterial activity of [R4W4] is bacteriostatic or bactericidal against clinical isolates of multidrug-resistant bacterial isolates, MIC and MBC were determined using the microbroth dilution method. Bacteriostatic activity was defined as a ratio of the MBC/MIC greater than four and bactericidal activity as MBC/MIC ratio ≤ 4 [33]. We added aliquots of test samples (256 μg/mL concentration of [R4W4] or vancomycin as a control prepared in TSB) to the first well of microplates. MHB media was added to the remaining wells. Two-fold serial dilutions were performed, starting with the highest drug concentration in well 1, and the dilution process continued. A bacterial aliquot of 1/150 dilution was prepared with a 0.5 McFarland standard solution from an overnight culture of the tested bacteria isolate. Bacteria were added to the microplate and placed into wells with the drug dilutions. The microplates were incubated overnight for 24 h at 37 °C. [R4W4] was synthesized and purified, as reported earlier.

MRSA Mec III = assay: microbe, parasite or virus in culture; format: cell-based, Staphylococcus aureus
Description: as §1

MRSA Clin 5 = assay: microbe, parasite or virus in culture; format: cell-based, Staphylococcus aureus
Description: as §1

[2] = tested on: MRSA (vancomycin hetero-non-susceptible) MU3; assay: microbe, parasite or virus in culture; format: cell-based, Staphylococcus aureus
Description: as §1

MRSA LAC [3] = assay: microbe, parasite or virus in culture; format: cell-based, Staphylococcus aureus
Description: as §1

MRSA Clin 6 = assay: microbe, parasite or virus in culture; format: cell-based, Staphylococcus aureus
Description: as §1

MRSA Mec IV = assay: microbe, parasite or virus in culture; format: cell-based, Staphylococcus aureus
Description: as §1

MRSA Mec II = assay: microbe, parasite or virus in culture; format: cell-based, Staphylococcus aureus
Description: as §1

MRSA Mec V = assay: microbe, parasite or virus in culture; format: cell-based, Staphylococcus aureus
Description: as §1

[4] = tested on: Enterococcus faecium (VRE); format: cell-based; conditions: urine isolate, microbroth dilution, 24 h, 37 °C, averages of triplicates of three different experiments, N/A = not active
Description: as §1

[5] = tested on: bacterial isolates (nine MRSA, B. subtilis, C. difficile, VRE); format: cell-based
Description: as §1

MRSA LAC [6] = conditions: for Lethal rate (LR), log10 reduction / % Reduction in viable bacteria: MRSA LAC in MHB
Description: The MRSA Los Angeles County (LAC) USA300 strain was cultured from −80 °C freezer stock and inoculated on an agar plate overnight. Two bacteria colonies were inoculated in MH broth overnight at 37 °C with shaking at 200 rpm. An aliquot was added to normal saline to achieve a 0.5 McFarland Standard suspension and then diluted 1:150 with MHB. The bacteria sample was plated on an agar plate at time zero. The test samples were prepared by adding [R4W4] or vancomycin to bacteria to achieve the final sample concentration of (1 × MIC, 2 × MIC, 4 × MIC) using media without antibacterial agents as positive control.
[…] The samples were diluted to minimize excessive CFU counts. The inoculated plates were incubated at 37 °C overnight. The surviving organisms were determined by counting colonies as CFU/plate. The average duplicate counts were multiplied by the dilution factors to arrive at CFU/mL. The microbial reduction was calculated by converting the count to log10 scale. The Log CFU/mL was plotted against time for different antibacterial concentrations.

C. difficile 9689 = assay: microbe, parasite or virus in culture; format: cell-based, Clostridioides difficile
Description: as §1

[7] = Staphylococcus aureus, MRSA, 24 h

`CN[C@H](CC(C)C)C(=O)N[C@H]1C(=O)N[C@@H](CC(N)=O)C(=O)N[C@H]2C(=O)N[C@H]3C(=O)N[C@H](C(=O)N[C@H](C(=O)O)c4cc(O)cc(O)c4-c4cc3ccc4O)[C@H](O)c3ccc(c(Cl)c3)Oc3cc2cc(c3O[C@@H]2O[C@H](CO)[C@@H](O)[C@H](O)[C@H]2O[C@H]2C[C@](C)(N)[C@H](O)[C@H](C)O2)Oc2ccc(cc2Cl)[C@H]1O` [Vancomycin, Vancomycin Hydrochloride, reference compound] showed an MIC (MRSA LAC [1]; read-out: MIC in the presence of calcium chloride) of 0.75 µg/mL, an MIC (MRSA LAC [1]; read-out: MIC in the presence of ferric chloride) of 0.625 to 1.25 µg/mL and an MIC (MRSA LAC [1]; read-out: MIC in the presence of sodium chloride) of 1 to 2 µg/mL. It also gave an MIC (MRSA LAC [1]; read-out: MIC under normal physiological conditions) of 1 µg/mL, an MIC (MRSA USA300; read-out: MIC in the absence of LTA) of 2 µg/mL and an MIC (MRSA USA300; read-out: MIC in the presence of LTA) of 2 µg/mL. The MBC/MIC (MRSA Mec 1; MRSA Mec 1, blood isolate) was 2, the MBC (MRSA Mec 1; Staphylococcus aureus, MRSA) was 2 µg/mL and the MIC (MRSA Mec 1; [7]) was 1 µg/mL. It also gave an MBC/MIC (MRSA Mec III; MRSA Mec III, wound isolate) of 2, an MBC (MRSA Mec III; Staphylococcus aureus, MRSA) of 2 µg/mL and an MIC (MRSA Mec III; [7]) of 1 µg/mL. For the same molecule, the MBC/MIC (MRSA Clin 5; MRSA Clin 5, lung isolate) was 1, the MBC (MRSA Clin 5; Staphylococcus aureus, MRSA) was 2 µg/mL and the MIC (MRSA Clin 5; [7]) was 2 µg/mL. It also gave an MBC/MIC ([2]; MRSA MU3, lung isolate) of 1.5, an MBC ([2]; Staphylococcus aureus, MRSA) of 3 µg/mL and an MIC [2, 7] of 2 µg/mL. It also gave an MBC/MIC (MRSA LAC [3]; MRSA LAC, wound isolate) of 2, an MBC (MRSA LAC [3]; Staphylococcus aureus, MRSA) of 2 µg/mL and an MIC (MRSA LAC [3]; [7]) of 1 µg/mL. The MBC/MIC (MRSA Clin 6; MRSA Clin 6, lung isolate) was 4, the MBC (MRSA Clin 6; Staphylococcus aureus, MRSA) was 8 µg/mL and the MIC (MRSA Clin 6; [7]) was 2 µg/mL. It also gave an MBC/MIC (MRSA Mec IV; MRSA Mec IV, lung isolate) of 4, an MBC (MRSA Mec IV; Staphylococcus aureus, MRSA) of 8 µg/mL and an MIC (MRSA Mec IV; [7]) of 2 µg/mL. The MBC/MIC (MRSA Mec II; MRSA Mec II, blood isolate) was 2, the MBC (MRSA Mec II; Staphylococcus aureus, MRSA) was 4 µg/mL and the MIC (MRSA Mec II; [7]) was 2 µg/mL. It also gave an MBC/MIC (MRSA Mec V; MRSA Mec V, wound isolate) of 2, an MBC (MRSA Mec V; Staphylococcus aureus, MRSA) of 4 µg/mL and an MIC (MRSA Mec V; [7]) of 2 µg/mL. For the same molecule, the MIC [4] was “not active”, the “bacteriostatic or bactericidal (Pankey's definition, MBC/MIC ≤ 4 bactericidal)” value ([5]; all tested bacterial isolates) was “bactericidal” and the “MBC increase over MIC values” ([5]; all the strains tested) was 2–4 fold. The “Lethal rate (LR), log10 reduction” value (MRSA LAC [6]; 1 × MIC ([R4W4] 4 µg/mL, vancomycin 1 µg/mL)) was 1.02, the “% Reduction in viable bacteria” value (MRSA LAC [6]; 1 × MIC, 100 × (1 − 10^−LR)) was 90.50% and the “% Reduction in viable bacteria” value (MRSA LAC [6]; 1 × MIC, 100 × (1 − 10^−LR), listed as vancomycin) was over 90%. For the same molecule, the “% Reduction in viable bacteria” value (MRSA LAC [6]; 2 × MIC) was 98.98%, the “Lethal rate (LR), log10 reduction” value (MRSA LAC [6]; 2 × MIC) was 1.99 and the “% Reduction in viable bacteria” value (MRSA LAC [6]; 4 × MIC) was 99.58%. For the same molecule, the “Lethal rate (LR), log10 reduction” value (MRSA LAC [6]; 4 × MIC) was 2.37, the “viable bacteria at 26 h” value (MRSA LAC [6]; MRSA LAC, 4 × MIC, 26 h) was “no viable bacteria were recovered at 26 h” and the “% reduction in viable bacteria over 1 × MIC, 2 × MIC and 4 × MIC” value (MRSA LAC [6]; MRSA in MHB, range over the three concentrations) was 90.50–99.58%. For the same molecule, the MBC/MIC (C. difficile 9689; C. difficile ATCC 9689, stool isolate) was 2, the MBC (C. difficile 9689; Clostridioides difficile, ATCC9689) was 1 µg/mL and the MIC (C. difficile 9689; Clostridioides difficile, ATCC9689, 24 h) was 0.5 µg/mL.
